Data as given in patent publication US11673910B2, “Macrolides with modified desosamine sugars and uses thereof” (Zikani Therapeutics, Inc., priority 2017, dated 2023).
In brackets after ≈: the same amount, converted by molar mass.

Tests used:
Type in all cases: cell-based
[1] = tested on: K. pneumoniae strain MP-548; assay: Broth dilution MIC determination (CLSI) against K. pneumoniae strain MP-548; settings: Klebsiella pneumoniae, MP548
Experimental: (§1) Minimum inhibitory concentrations (MICs) for macrolides described herein were determined for E. coli strain MP-4, K. pneumoniae strain MP-548, P. aeruginosa strain MP-3, A. baumannii strain MP-15, and S. aureus strain MP-12 using similar test procedures as published in US Pat. Pub. No. 2017/0305953. MIC data is represented as “+++” for values less than or equal to 4 mg/L, “++” for values of greater than or equal to 8 mg/L and less than 32 mg/L, and “+” for values of 32 mg/L or greater. ND indicates no data for a particular compound. CLSI standard procedures for broth dilution MIC determination were used.

S. aureus strain MP-12 = assay: Broth dilution MIC determination (CLSI) against S. aureus strain MP-12; settings: Staphylococcus aureus, MP12, strain MP-12
Experimental: as §1

[2] = tested on: A. baumannii strain MP-15; assay: Broth dilution MIC determination (CLSI) against A. baumannii strain MP-15; settings: Acinetobacter baumannii, MP15
Experimental: as §1

E. coli strain MP-4 = assay: Broth dilution MIC determination (CLSI) against E. coli strain MP-4; settings: Escherichia coli, MP4
Experimental: as §1

[3] = tested on: P. aeruginosa strain MP-3; assay: Broth dilution MIC determination (CLSI) against P. aeruginosa strain MP-3; settings: Pseudomonas aeruginosa, MP3
Experimental: as §1

Structure (SMILES)	MIC [1] [µg/mL]	MIC (S. aureus strain MP-12) [µg/mL]	MIC [2] [µg/mL]	MIC (E. coli strain MP-4) [µg/mL]	MIC [3] [µg/mL]
CC[C@H]1OC(=O)C(C)C(=O)[C@H](C)[C@@H](O[C@@H]2OC(CNCc3cccc(OC)c3)CC(N(C)C)C2O)[C@](C)(OC)C[C@@H](C)CN[C@H](C)[C@H]2NC(=O)O[C@@]21C (stereo partly drawn) [Compound 43]	≥ 32	≥ 32	≥ 32	≤ 4	≥ 32
CC[C@H]1OC(=O)C(C)C(=O)[C@H](C)[C@@H](OC2OC(CNCCS(C)(=O)=O)CC(N(C)C)C2O)[C@](C)(OC)C[C@@H](C)CN[C@H](C)[C@H]2NC(=O)O[C@@]21C (stereo partly drawn) [Compound 140, 3-Descladinosyl-3-oxo-6-O-methyl-N9a-desmethyl-11,12-dideoxy-12,11-(oxycarbonylimino)-6′-2″-(methylsulfonyl)ethan-1″-amino Azithromycin]	≥ 32	≥ 32	≥ 32	≥ 32	≥ 32
CC[C@H]1OC(=O)[C@@]2(C)CCO[C@](C)(C[C@@H](C)CN[C@H](C)[C@H]3NC(=O)O[C@@]31C)[C@H](O[C@@H]1O[C@H](CNCc3cccnc3)C[C@H](N(C)C)[C@H]1O)[C@@H](C)C2=O [Compound 201]	≥ 32	≥ 32	≥ 32	≥ 32	≥ 32
CC[C@H]1OC(=O)C(C)C(=O)[C@H](C)[C@@H](OC2OC(CN(C)C3CC3)CC(N(C)C)C2O)[C@](C)(OC)C[C@@H](C)CN[C@H](C)[C@H]2NC(=O)O[C@@]21C (stereo partly drawn) [Compound 129, 3-Descladinosyl-3-oxo-6-O-methyl-N9a-desmethyl-11,12-dideoxy-12,11-(oxycarbonylimino)-6′-(N-methylcyclopropylamino) Azithromycin]	8 to 32 (≈ 11.7 to 46.9 µM)	8 to 32 (≈ 11.7 to 46.9 µM)	8 to 32 (≈ 11.7 to 46.9 µM)	≤ 4	≥ 32
CC[C@H]1OC(=O)C(C)C(=O)[C@H](C)[C@@H](O[C@@H]2OC(CNCc3cn(-c4cncnc4)nn3)CC(N(C)C)C2O)[C@](C)(OC)C[C@@H](C)CN[C@H](C)[C@H]2NC(=O)O[C@@]21C (stereo partly drawn) [Compound 24]	≥ 32	≥ 32	≥ 32	≥ 32	≥ 32
CC[C@H]1OC(=O)C(C)C(=O)[C@H](C)[C@@H](O[C@@H]2O[C@H](CNC(C)C)CC(N(C)C)[C@H]2O)[C@](C)(OC)C[C@@H](C)CN(C)[C@H](C)[C@H]2NC(=O)O[C@@]21C (stereo partly drawn) [Compound 164, 3-Descladinosyl-3-oxo-6-O-methyl-11,12-dideoxy-12,11-(oxycarbonylimino)-6′-isopropylamino Azithromycin]	8 to 32 (≈ 11.7 to 46.7 µM)	≥ 32	≥ 32	≤ 4	≥ 32
CC[C@H]1OC(=O)C(C)C(=O)[C@H](C)[C@@H](O[C@@H]2OC(CNCc3ccccc3F)CC(N(C)C)C2O)[C@](C)(OC)C[C@@H](C)CN[C@H](C)[C@H]2NC(=O)O[C@@]21C (stereo partly drawn) [Compound 29]	≥ 32	≥ 32	≥ 32	≤ 4	≥ 32
CC[C@H]1OC(=O)C(C)C(=O)[C@H](C)[C@@H](OC2OC(CN(C)C(C)C)CC(N(C)C)C2O)[C@](C)(OC)C[C@@H](C)CN[C@H](C)[C@H]2NC(=O)O[C@@]21C (stereo partly drawn) [Compound 154, 3-Desdadinosyl-3-oxo-6-O-methyl-N9a-desmethyl-11,12-dideoxy-12,11-(oxycarbonylimino)-6′-isopropylmethylamino Azithromycin]	8 to 32 (≈ 11.7 to 46.7 µM)	≥ 32	≥ 32	≤ 4	≥ 32
CC[C@H]1OC(=O)C(C)C(=O)[C@H](C)[C@@H](O[C@@H]2O[C@H](CNCC3CC3)CC(N(C)C)[C@H]2O)[C@](C)(OC)C[C@@H](C)CN(C)[C@H](C)[C@H]2NC(=O)O[C@@]21C (stereo partly drawn) [Compound 162, 3-Descladinosyl-3-oxo-6-O-methyl-11,12-dideoxy-12,11-(oxycarbonylimino)-6′-cyclopropylmethylamino Azithromycin]	8 to 32 (≈ 11.5 to 45.9 µM)	≥ 32	≥ 32	≤ 4	≥ 32
CC[C@H]1OC(=O)C(C)C(=O)[C@H](C)[C@@H](OC2OC(CN(C)C(C)C)CC(N(C)C)C2O)[C@](C)(OC)C[C@@H](C)CN(C)[C@H](C)[C@H]2NC(=O)O[C@@]21C (stereo partly drawn) [Compound 160, 3-Desdadinosyl-3-oxo-6-O-methyl-9a-desmethyl-11,12-dideoxy-12,11-(oxycarbonylimino)-6′-isopropylmethylamino Azithromycin]	≥ 32	≥ 32	≥ 32	≤ 4	≥ 32
CC[C@H]1OC(=O)C(C)C(=O)[C@H](C)[C@@H](OC2OC(CNC3CC3)CC(N(C)C)C2O)[C@](C)(OC)C[C@@H](C)C(=O)N[C@H](C)[C@H]2NC(=O)O[C@@]21C (stereo partly drawn) [Compound 189, 3-Descladinosyl-3-oxo-6-O-methyl-8-oxo-N9a-desmethyl-11,12-dideoxy-12,11-(oxycarbonylimino)-6′-cyclopropylamino Azithromycin]	≥ 32	≥ 32	≥ 32	≥ 32	≥ 32
CC[C@H]1OC(=O)C(C)C(=O)[C@H](C)[C@@H](O[C@@H]2OC(CN(C)Cc3ccc(F)cc3)CC(N(C)C)C2O)[C@](C)(OC)C[C@@H](C)CN[C@H](C)[C@H]2NC(=O)O[C@@]21C (stereo partly drawn) [Compound 34]	≥ 32	≥ 32	≥ 32	8 to 32 (≈ 10.7 to 42.6 µM)	≥ 32
CC[C@H]1OC(=O)C(C)C(=O)[C@H](C)[C@@H](O[C@@H]2OC(CO)CC(N(C)C)C2O)[C@](C)(OC)C[C@@H](C)CN[C@H](C)[C@H]2NC(=O)O[C@@]21C (stereo partly drawn) [Compound 57]	≥ 32	≥ 32	≥ 32	8 to 32 (≈ 12.7 to 50.8 µM)	≥ 32
CC[C@H]1OC(=O)C(C)C(=O)[C@H](C)[C@@H](O[C@@H]2OC(CNCc3cncc(-n4cncn4)n3)CC(N(C)C)C2O)[C@](C)(OC)C[C@@H](C)CN[C@H](C)[C@H]2NC(=O)O[C@@]21C (stereo partly drawn) [Compound 26]	≥ 32	≥ 32	≥ 32	≥ 32	≥ 32
CC[C@H]1OC(=O)C(C)C(=O)[C@H](C)[C@@H](O[C@@H]2OC(CNc3ccc(C#N)cc3)CC(N(C)C)C2O)[C@](C)(OC)C[C@@H](C)CN[C@H](C)[C@H]2NC(=O)O[C@@]21C (stereo partly drawn) [Compound 50]	≥ 32	≥ 32	≥ 32	8 to 32 (≈ 11 to 43.8 µM)	≥ 32
CO[C@]1(C)C[C@@H](C)CN[C@H](C)[C@H]2NC(=O)O[C@]2(C)[C@@H](C)OC(=O)C(C)C(=O)[C@H](C)[C@H]1OC1OC(CNC2CCC2)CC(N(C)C)C1O (stereo partly drawn) [Compound 147, 3-Descladinosyl-3-oxo-6-O-methyl-N9a-desmethyl-11,12-dideoxy-12,11-(oxycarbonylimino)-6′-cyclobutylamino-13-methyl Azithromycin]	≥ 32	≥ 32	≥ 32	8 to 32 (≈ 12 to 47.8 µM)	≥ 32
CC[C@H]1OC(=O)C(C)C(=O)[C@H](C)[C@@H](OC2OC(CN3CC(F)(F)C3)CC(N(C)C)C2O)[C@](C)(OC)C[C@@H](C)CN[C@H](C)[C@H]2NC(=O)O[C@@]21C (stereo partly drawn) [Compound 139, 3-Descladinosyl-3-oxo-6-O-methyl-N9a-desmethyl-11,12-dideoxy-12,11-(oxycarbonylimino)-6′-(3″,3″-difluoroazetidinyl) Azithromycin]	8 to 32 (≈ 11.3 to 45.4 µM)	8 to 32 (≈ 11.3 to 45.4 µM)	8 to 32 (≈ 11.3 to 45.4 µM)	≤ 4	≥ 32
CCNC[C@@H]1CC(N(C)C)[C@@H](O)[C@H](O[C@@H]2[C@@H](C)C(=O)C(C)C(=O)O[C@H](CC)[C@@]3(C)OC(=O)N[C@@H]3[C@@H](C)N(C)C[C@H](C)C[C@@]2(C)OC)O1 (stereo partly drawn) [Compound 165, 3-Descladinosyl-3-oxo-6-O-methyl-11,12-dideoxy-12,11-(oxycarbonylimino)-6′-ethylamino Azithromycin]	8 to 32 (≈ 11.9 to 47.7 µM)	≥ 32	≥ 32	≤ 4	≥ 32
CC[C@H]1OC(=O)C(C)C(=O)[C@H](C)[C@@H](OC2OC(CNCCF)CC(N(C)C)C2O)[C@](C)(OC)C[C@@H](C)CN[C@H](C)[C@H]2NC(=O)O[C@@]21C (stereo partly drawn) [Compound 111, 3-Descladinosyl-3-oxo-6-O-methyl-N9a-desmethyl-11,12-dideoxy-12,11-(oxycarbonylimino)-6′-(2-fluoroethylamino) Azithromycin]	≤ 4	≥ 32	≥ 32	≤ 4	≥ 32
CC[C@H]1OC(=O)C(C)C(=O)[C@H](C)[C@@H](O[C@@H]2OC(CN[C@@H](C)c3ccc(F)cc3)CC(N(C)C)C2O)[C@](C)(OC)C[C@@H](C)CN[C@H](C)[C@H]2NC(=O)O[C@@]21C (stereo partly drawn) [Compound 32]	≥ 32	≥ 32	≥ 32	≤ 4	≥ 32
CC[C@H]1OC(=O)C(C)C(=O)[C@H](C)[C@@H](OC2OC(CN3CCN(C)CC3)CC(N(C)C)C2O)[C@](C)(OC)C[C@@H](C)CN[C@H](C)[C@H]2NC(=O)O[C@@]21C (stereo partly drawn) [Compound 126, 3-Descladinosyl-3-oxo-6-O-methyl-N9a-desmethyl-11,12-dideoxy-12,11-(oxycarbonylimino)-6′-(1-(4-methyl)-piperazinyl) Azithromycin]	8 to 32 (≈ 11.2 to 44.9 µM)	≥ 32	≥ 32	≤ 4	≥ 32
